In one test the test system is TMD-8 cells. In words: Anti-Proliferation Assay (MTS), TMD-8 cells. The test is classed as cell-based. To be noted: Homo sapiens, TMD8, treated for 72 hours, MTS cell survival. Here is the method: (§1) Cell survival is determined by a MTS assay. Briefly, cells (i.e., TMD-8 cells or Rec-1 cells) are plated in a 96-well plate, cultured in complete growth medium, and then treated with various drugs and drug combinations. MTS/PMS is added and incubated, followed by assessment of cell viability using the microplate reader. Data is normalized to untreated controls and analyzed with Microsoft Excel.
(§2) Cell survival was determined by the MTS assay. Briefly, cells (i.e., TMD-8 cells or Rec-1 cells) were plated in a 96-well plate at 2,000-10,000 cells per well, cultured for 24 hours in complete growth medium, and then treated with various drugs and drug combinations for 72 hours. MTS/PMS was added and incubated for 4 hour, followed by assessment of cell viability using the microplate reader (absorbance at 490 nm). Data were normalized to untreated controls and analyzed with Microsoft Excel.

For another test, the system named is Rec-1 cells. The test is described as follows: Anti-Proliferation Assay (MTS), Rec-1 cells. To be noted: Homo sapiens, Rec1, treated for 72 hours, MTS cell survival. The test is classed as cell-based. Here is the method: as §1, §2

Structures are written as SMILES.

As for `O=C(c1ccc(Oc2ccccc2)cc1Cl)c1c[nH]c2ncnc(N[C@@H]3CC[C@@H](CO)OC3)c12` [Compound (I), (2-chloro-4-phenoxyphenyl)(4-(((3R,6S)-6-(hydroxymethyl)tetrahydro-2H-pyran-3-yl)amino)-7H-pyrrolo[2,3-d]pyrimidin-5-yl)methanone], the values for the IC50 in the test with TMD-8 cells and in the test with Rec-1 cells were 130 ± 60 nM and 180 ± 70 nM, respectively.

The term IC50 denotes the point on the concentration scale where inhibition reaches its midpoint.
